Data: publication PMC5792488, “Structural basis of the molecular ruler mechanism of a bacterial glycosyltransferase” (Nature Communications, 2018)

How the values were obtained:
PglH [1] = biological target: T1, PglH (Campylobacter jejuni, UniProt Q0P9C5); assay: ([…] Å); IC50 with purified PglH; assay type: biochemical
T1 construct: PglH with C-terminal His10 tag

PglH [2] = biological target: T1, PglH; assay: crystal structure of ternary complex with synthetic LLO ([…] Å); IC50 with purified PglH; assay type: biochemical

T1 sequence (Q0P9C5 whole entry): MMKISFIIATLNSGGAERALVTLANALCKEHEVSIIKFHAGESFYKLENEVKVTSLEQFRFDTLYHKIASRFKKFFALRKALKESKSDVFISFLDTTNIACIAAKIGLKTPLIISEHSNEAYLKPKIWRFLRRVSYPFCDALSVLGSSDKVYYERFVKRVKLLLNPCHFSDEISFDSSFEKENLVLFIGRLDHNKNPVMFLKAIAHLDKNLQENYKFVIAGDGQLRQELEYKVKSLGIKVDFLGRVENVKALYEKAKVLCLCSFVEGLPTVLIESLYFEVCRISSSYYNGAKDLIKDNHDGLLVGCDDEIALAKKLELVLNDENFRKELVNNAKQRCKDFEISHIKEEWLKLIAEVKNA

Row | SMILES | IC50 (PglH [1]) | IC50 (PglH [2])
1 | CC(=O)N[C@@H]1[C@@H](O)[C@@H](O)[C@@H](CO)O[C@@H]1CP(=O)(O)OP(=O)(O)OC[C@@H]1O[C@@H](n2ccc(=O)[nH]c2=O)[C@H](O)[C@@H]1O [UDP-CH2-GalNAc] | 303 ± 24 µM | –
2 | O=c1ccn([C@@H]2O[C@H](COP(=O)(O)OP(=O)(O)O)[C@@H](O)[C@H]2O)c(=O)[nH]1 [UDP] | – | 1020 ± 87 µM
